Experiment [1] addresses Lysosomal alpha-glucosidase (Homo sapiens) (UniProt P10253). Briefly: Activation of purified human recombinant acid alpha-glucosidase using resorufin alpha-D-glucopyranoside as substrate at 100 uM after 45 mins relative to basal.
The target is the same in experiment [2]. Briefly: Activation of purified human recombinant acid alpha-glucosidase using glycogen as substrate up to 100 uM after 45 mins.
For experiment [3] the target is unchanged. In words: Activation of purified human recombinant acid alpha-glucosidase using 4-methylumbelliferyl-alpha-D-glucopyranoside as substrate after 45 mins relative to basal.
For experiment [4], the target named is T1, Alpha-galactosidase A (Homo sapiens) (UniProt P06280).
T1 sequence (whole entry): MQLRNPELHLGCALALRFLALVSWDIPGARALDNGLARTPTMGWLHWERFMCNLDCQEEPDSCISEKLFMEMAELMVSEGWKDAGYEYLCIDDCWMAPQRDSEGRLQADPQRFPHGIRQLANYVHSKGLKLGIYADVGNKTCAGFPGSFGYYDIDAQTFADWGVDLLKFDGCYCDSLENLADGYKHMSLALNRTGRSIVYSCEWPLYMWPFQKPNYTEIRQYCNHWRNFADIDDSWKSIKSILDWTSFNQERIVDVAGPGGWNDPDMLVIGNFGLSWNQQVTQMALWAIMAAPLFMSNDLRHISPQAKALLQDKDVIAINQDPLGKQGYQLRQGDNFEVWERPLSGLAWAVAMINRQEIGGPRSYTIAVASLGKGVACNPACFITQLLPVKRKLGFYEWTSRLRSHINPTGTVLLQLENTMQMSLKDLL
Briefly: Activation of purified alpha-galactosidase A using 4-methylumbelliferyl-alpha-D-galactoside as substrate after 45 mins relative to basal.

For experiment [5], the target named is Lysosomal alpha-glucosidase (Homo sapiens) (UniProt P10253). Briefly: Activation of purified acid alpha-glucosidase in human spleen homogenates using resorufin alpha-D-glucopyranoside as substrate at 10 uM after 45 mins relative to basal.
Experiment [6] shares this target. Briefly: Activation of purified acid alpha-glucosidase in human spleen homogenates using resorufin alpha-D-glucopyranoside as substrate after 45 mins relative to basal.
Experiment [7] has the same target. Briefly: Activation of purified acid alpha-glucosidase in human spleen homogenates using 4-methylumbelliferyl-alpha-D-glucopyranoside as substrate after 45 mins relative to basal.
For experiment [8] the target is unchanged. Briefly: Activation of purified human recombinant acid alpha-glucosidase using resorufin alpha-D-glucopyranoside as substrate after 45 mins relative to basal.

Molecules are shown by their SMILES. Active and inactive are the calls of the source. The rule behind the calls is not given here.

On to `CCCN1CNc2c(c(=O)[nH]c(=S)n2CCc2ccccc2C)C1`, for which the Activity in experiment [1] turned out to be 136%.

Consider `CCCN1CNc2c(c(=O)[nH]c(=S)n2CCc2cc(C)ccc2C)C1`, for which, in experiment [1], the Activity amounted to 245%.

Take `COc1ccc(CCn2c3c(c(=O)[nH]c2=S)CN(CC(C)C)CN3)cc1OC`: in experiment [2], the outcome was inactive. Further, in experiment [1], the Activity came out at 338%.

For the molecule `CCCN1CNc2c(c(=O)[nH]c(=S)n2CCc2cccc(Cl)c2Cl)C1`, the Activity entry in experiment [3] was “Dose-dependent effect”; in experiment [1] it was 346%. The result in experiment [2] and in experiment [4] was inactive.

For the molecule `CCCN1CNc2c(c(=O)[nH]c(=S)n2CCc2ccc(C)cc2)C1`, in experiment [1], the Activity was 300%.

On to `COc1ccc(C#Cc2cnc(Cl)c3cncnc23)cc1OC`, for which the result in experiment [1] was inactive.

For the molecule `CCCN1CNc2c(c(=O)[nH]c(=S)n2Cc2ccc(OCC)c(OCC)c2)C1`, the figures for the Activity entry in experiment [3] and in experiment [1] were “Dose-dependent effect” and 365%, respectively. For the same molecule, the result in experiment [2] and in experiment [4] was inactive.

As to `CCCN1CNc2c(c(=O)[nH]c(=S)n2CCc2ccccc2Cl)C1`, the Activity in experiment [1] was 311%.

With `CCCCn1c(N)c(NCC)c(=O)[nH]c1=O`, the result in experiment [1] was inactive.

Regarding `CCCN1CNc2c(c(=O)[nH]c(=S)n2CCc2cccc(OC)c2OC)C1`, the Activity in experiment [1] came out at 262%.

In the case of `COc1ccc(CCn2c(N)cc(=O)[nH]c2=S)cc1OC`, the Activity in experiment [1] stood at 32.1%.

With `CCCN1CNc2c(c(=O)[nH]c(=S)n2CCc2ccc3c(c2)OCCO3)C1`, in experiment [1], the Activity is 328%.

In the case of `CCCN1CNc2c(c(=O)[nH]c(=S)n2CCc2cccc(Cl)c2)C1`, the Activity in experiment [1] is 197%.

As to `CCCN1CNc2c(c(=O)[nH]c(=S)n2CCc2cccs2)C1`, the Activity in experiment [1] turned out to be 221%.

As for `CCCN1CNc2c(c(=O)[nH]c(=S)n2CCc2cccc(C)c2C)C1`, the Activity in experiment [1] is 300%.

As to `CCCN1CNc2c(c(=O)[nH]c(=S)n2CCc2ccc(C)cc2C)C1`, the Activity in experiment [1] came out at 323%.

Consider `CCCN1CNc2c(c(=O)[nH]c(=S)n2CCc2cc(Cl)ccc2Cl)C1`, for which, in experiment [1], the Activity came to 325%.

With `CCCN1CNc2c(c(=O)[nH]c(=S)n2CCc2c(C)cccc2C)C1`, the Activity in experiment [1] was determined as 112%.

Take `CCCN1CNc2c(c(=O)[nH]c(=S)n2CC(C)(C)C)C1`: the result in experiment [1] was inactive.

For the molecule `CCCN1CNc2c(c(=O)[nH]c(=S)n2CCc2ccsc2)C1`, the Activity in experiment [1] turned out to be 192%.

Turning to `COc1ccc(C#Cc2c[nH]c(=O)c3cncnc23)cc1OC`, the result in experiment [1] was inactive.

On to `COc1ccc(CCn2c(=S)[nH]c(=O)c3c(C)cc(C)nc32)cc1OC`, for which the result in experiment [1] was inactive.

As to `CCCN1CNc2c(c(=O)[nH]c(=S)n2CCc2ccc(Cl)cc2)C1`, in experiment [1], the Activity worked out at 120%.

In the case of `CCCN1CNc2c(c(=O)[nH]c(=S)n2CCc2cc(OC)cc(OC)c2)C1`, the Activity in experiment [1] was determined as 332%.

Regarding `CCCN1CNc2c(c(=O)[nH]c(=S)n2CCc2ccccn2)C1`, the Activity in experiment [1] worked out at 30.6%.

With `COc1ccc(CCn2c3c(c(=O)[nH]c2=S)CN(Cc2ccccc2)CN3)cc1OC`, in experiment [1], the Activity came to 335%.

Take `Clc1ncc(C#Cc2ccccc2)c2ncncc12`: the outcome in experiment [1] was inactive.

Regarding `CCCN1CNc2c(c(=O)[nH]c(=S)n2CCc2ccc(OC)cc2)C1`, the Activity in experiment [1] is 309%.

For the molecule `CCCN1CNc2c(c(=O)[nH]c(=S)n2CCc2ccccc2OC)C1`, in experiment [1], the Activity is 243%.

As for `CCCN1CNc2c(c(=O)[nH]c(=S)n2CCc2c(Cl)cccc2Cl)C1`, the Activity entry in experiment [3] was “Dose-dependent effect”; in experiment [1], 332%. For the same molecule, the outcome in experiment [2] and in experiment [4] was inactive.

As to `COc1ccc(CCc2c[nH]c(=O)c3cncnc23)cc1OC`, the result in experiment [1] was inactive.

Consider `CCCN1CNc2c(c(=O)[nH]c(=S)n2CCc2cccc(OC)c2)C1`, for which the Activity in experiment [1] was 302%.

For `COc1ccc(CCn2c3c(c(=O)[nH]c2=S)CN(C(C)C)CN3)cc1OC`, the values for the Activity entry in experiment [3] and in experiment [1] were “Dose-dependent effect” and 234%, respectively. Also, in experiment [4], the outcome was inactive.

In the case of `CCCN1CNc2c(c(=O)[nH]c(=S)n2CCc2cc(C)cc(C)c2)C1`, the Activity in experiment [1] is 218%.

Consider `COc1ccc(CCn2c(=S)[nH]c(=O)c3nc[nH]c32)cc1OC`, for which, in experiment [1], the outcome was inactive.

`CCCN1CNc2c(c(=O)[nH]c(=S)n2CCc2cc(OC)ccc2OC)C1`: the Activity in experiment [1] came out at 327%.

For `O=c1[nH]cc(C#Cc2ccccc2)c2ncncc12`, in experiment [1], the result was inactive.

Take `CCCN1CNc2c(c(=O)[nH]c(=S)n2CCc2ccc(Cl)cc2Cl)C1`: the Activity in experiment [1] came to 321%.

With `COc1ccc(C(=O)NC2(C(F)(F)F)C(=O)Nc3c2c(=O)[nH]c(=O)n3CCc2ccc(OC)c(OC)c2)cc1` (stereo unspecified), in experiment [1], the Activity stood at 121%.

For the molecule `CCCN1CNc2c(c(=O)[nH]c(=S)n2CCc2c(OC)cccc2OC)C1`, in experiment [1], the Activity stood at 227%.

Turning to `CCCN1CNc2c(c(=O)[nH]c(=S)n2CCC)C1`, the result in experiment [1] was inactive.

Consider `CCCN1CNc2c(c(=O)[nH]c(=O)n2CCc2ccc(OC)c(OC)c2)C1`, for which, in experiment [1], the Activity was 297%.

On to `CCCN1CNc2c(c(=O)[nH]c(=S)n2CCc2ccc(C)c(C)c2)C1`, for which, in experiment [1], the Activity is 338%.

With `COc1ccc(CCn2c3c(c(=O)[nH]c2=S)CN(c2ccccc2)CN3)cc1OC`, the Activity in experiment [1] turned out to be 275%.

In the case of `COc1ccc(CCn2c3c(c(=O)[nH]c2=O)C(NC(=O)c2cccs2)(C(F)(F)F)C(=O)N3)cc1OC` (stereo unspecified), the Activity in experiment [1] was found to be 64.2%.

On to `COc1ccc(CCn2c(=S)[nH]c(=O)c3nccnc32)cc1OC`, for which, in experiment [1], the result was inactive.

For `CCCN1CNc2c(c(=O)[nH]c(=S)n2CCc2ccccc2)C1`, in experiment [1], the Activity came out at 142%.

Regarding `COc1ccc(CCn2c3c(c(=O)[nH]c2=S)CN(C)CN3)cc1OC`, the Activity in experiment [1] was found to be 282%.

Take `CCCN1CNc2c(c(=O)[nH]c(=S)n2CC(C)C)C1`: the result in experiment [1] was inactive.

In the case of `CCCN1CNc2c(c(=O)[nH]c(=S)n2CCc2cc(Cl)cc(Cl)c2)C1`, the Activity in experiment [1] turned out to be 316%.

With `CCCN1CNc2c(c(=O)[nH]c(=S)n2CCc2ccc(Cl)c(Cl)c2)C1`, the Activity in experiment [1] came to 88.8%.

As to `CCCN1CNc2c(c(=O)[nH]c(=S)n2CCc2ccc(OC)c(OC)c2)C1`, the fold change (FC) in experiment [5] was 1.5. Moreover, the Activity result is “Dose-dependent effect” in experiment [3]; “Dose-dependent effect” in experiment [6]; 356% in experiment [1]; “Dose-dependent effect” in experiment [7]; “Dose-dependent effect” in experiment [8]. In addition, the outcome in experiment [2] and in experiment [4] was inactive.

In the case of `CCCN1CNc2c(c(=O)[nH]c(=S)n2CCc2ccc(OC)cc2OC)C1`, the Activity in experiment [1] came to 308%.

Turning to `CCCN1CNc2c(c(=O)[nH]c(=S)n2CCCc2ccccc2)C1`, the Activity in experiment [1] was determined as 166%.

As to `CCCN1CNc2c(c(=O)[nH]c(=S)n2CCc2cccc(C)c2)C1`, the Activity in experiment [1] was 295%.

For `O=c1[nH]cc(CCc2ccccc2)c2ncncc12`, the result in experiment [1] was inactive.

Turning to `CCCN1CNc2c(c(=O)[nH]c(=S)n2CCc2ccc(OCC)c(OCC)c2)C1`, in experiment [1], the Activity worked out at 306%.

Values taken from ChEMBL document CHEMBL1157879.
